Structures can show the parent of a compound that is named as a salt.
Tests used:
[1] = test system: MSCs grown on silk scaffolds; assay: Rho/Rock pathway and stress fiber disruption in MSCs grown on silk scaffolds; format: cell-based; details: treatment for 24 h
Description: FIG. 6A-6C. Disruption of Rho/Rock Pathway signaling and stress fiber formation are required for tendon lineage determination. (6A) Immunocytochemistry of P-actin in MSCs grown either with no treatment or treated with Latrunculin A, Y-27632 and Blebbistatin for 7 days (blue=DAPI, green=P-actin). *P<0.05 for all treatments. (6B) mRNA expression and protein expression of Sex and mRNA expression of (6C) Coll al and Nfatc4 Nst in MSCs grown on silk scaffolds following treatment with Latrunculin A (LatA), Y-27632 (Y) and Blebbistatin (Bleb) for 24 h. Data represent three independent experiments per assay.
4. Disruption of stress fiber formation by blocking Rho/Rock Pathway signaling abolished silk scaffold induced MSCs tendon lineage differentiation. To determine the role of stress fibers in mediating silk fiber-induced MSC tenogenic differentiation, the impact of cell signaling on the regulation of stress fiber formation was examined.
Compared to untreated cells, cells that were exposed to the above treatment conditions lost their elongated phenotype (FIG. 6A). […] Therefore, the expression of Nfatc4 and Collal following treatment with Latrunculin A, Y-27632, and blebbistatin was also examined.

[2] = test system: MSCs grown on silk scaffolds; assay: effect of cytochalasin D on silk-fiber induced MSC teno-differentiation; format: cell-based
Description: FIG. 5A-5I. Cytochalasin D disrupted actin cytoskeletal arrangement in cells attached to scaffold fibers and abolished the elongated cell body [(5A) vs (5B)] and associated nuclear shape change [(5C) vs (5D)]. […] (5G) Relative mRNA and (5H) western blot of Sex and Tnmd expression with (i) relative mRNA expression of the housekeeping genes Hrptl and Pgkl as an internal control. Data represent at least three independent experiments per assay. *P<0.05 compared to MSCs seeded on a scaffold without cytochalasin D. Scale bar=25 μm.
3. Actin polymerization is required for scaffold induced stem cell elongation and expression of tenogenesis markers Sex and Tnmd. To determine the role of cytoskeletal organization in the differentiation of MSCs into tenocytes when MSCs are grown on silk, the effect of cytochalasin D, which inhibits actin polymerization by capping the barbed ends of F-actin polymers was examined on silk-fiber induced MSC teno-differentiation. Differences in cell shape and cell nuclei were quantified by measuring the lengths of the cells that were growing in parallel with the fibers and were compared to the maximal widths of the cells, which were measured perpendicular to the fibers. […] Significant differences were found when quantifying the cytoplasmic (P<0.05) and nuclear (P<0.05) ratios (Fig. SE).
To determine whether actin polymerization in elongated cells is required for tenogenic differentiation, the effect of cytochalasin D was examined on tenogenic marker gene and protein expression in MSCs that were grown on silk scaffolds for 7 days. […] To determine whether the loss of Sex and Tnmd expression was due to specific effects produced by cytochalasin D on actin polymerization and cell morphology, rather than due to general toxicity related to gene expression, the expression levels of two housekeeping genes, Hypoxanthine-guanine phosphoribosyltransferase
1 (Hprtl) and phosphoglycerate kinase 1 (Pgkl), were analyzed.

[3] = MSCs grown on silk scaffolds for 7 days, compared to untreated controls
[4] = check for general toxicity related to gene expression
[5] = compared to untreated MSCs, P<0.05

SMILES: C/C1=C/C(=O)O[C@@H]2C[C@@H](CC[C@H](C)/C=C\C=C\CC1)O[C@@](O)([C@@H]1CSC(=O)N1)C2 [Latrunculin A]
- expression level of Coll al [1]: significantly decreased
- expression level of Nfatc4 [1]: significantly decreased
- expression level of SCX proteins [1]: significantly decreased
- expression level of Sex mRNAs [1]: significantly decreased

SMILES: C[C@@H](N)[C@H]1CC[C@H](C(=O)Nc2ccncc2)CC1 [Y-27632, Y-27632 dihydrochloride]
- expression level of Coll al [1]: significantly decreased
- expression level of Nfatc4 [1]: significantly decreased
- expression level of SCX proteins [1]: significantly decreased
- expression level of Sex mRNAs [1]: significantly decreased

SMILES: C=C1[C@@H](C)[C@H]2[C@H](Cc3ccccc3)NC(=O)[C@]23[C@H](OC(C)=O)/C=C/[C@@](C)(O)C(=O)[C@@H](C)C/C=C/[C@H]3[C@@H]1O [cytochalasin D]
- Sex expression (immunocytochemistry, real-time PCR, western blot) [2, 3]: loss
- Tnmd expression (immunocytochemistry, real-time PCR, western blot) [2, 3]: loss
- elongated phenotype of the cells [2, 3]: abolished
- expression level of housekeeping gene Hprtl [2, 4]: remained unchanged
- expression level of housekeeping gene Pgkl [2, 4]: remained unchanged
- length-to-width ratio of cytoplasm [2, 5]: smaller
- length-to-width ratio of nuclei [2, 5]: smaller

SMILES: Cc1ccc2c(c1)C(=O)C1(O)CCN(c3ccccc3)C1=N2 (stereo not shown) [blebbistatin]
- expression level of Coll al [1]: significantly decreased
- expression level of Nfatc4 [1]: significantly decreased
- expression level of SCX proteins [1]: significantly decreased
- expression level of Sex mRNAs [1]: significantly decreased

— patent US11596656B2, “Stem cell-produced microvesicles for treating tendon pathologies” (ALBERT EINSTEIN COLLEGE OF MEDICINE, priority 2016, dated 2023)
